# Source: ChEMBL document CHEMBL1201862, “PubChem BioAssay data set” (2004)
# The source made the active and inactive calls.
# Experiments:
# Large T antigen = Large T antigen (Simian virus 40, UniProt P03070); type: functional, Betapolyomavirus macacae;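 further: Confirmatory-stage PubChem screen for compounds that inhibit SV40 T antigen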
# [1] = target: T1, Zinc finger protein mex-5 (Caenorhabditis elegans, UniProt Q9XUB2); assay: MEX-5/TCR-2 RNA interaction inhibitors, dose response, biochemical, C. elegans, fluorescence polarization (AID 1960)
# T1 sequence (Q9XUB2 whole entry): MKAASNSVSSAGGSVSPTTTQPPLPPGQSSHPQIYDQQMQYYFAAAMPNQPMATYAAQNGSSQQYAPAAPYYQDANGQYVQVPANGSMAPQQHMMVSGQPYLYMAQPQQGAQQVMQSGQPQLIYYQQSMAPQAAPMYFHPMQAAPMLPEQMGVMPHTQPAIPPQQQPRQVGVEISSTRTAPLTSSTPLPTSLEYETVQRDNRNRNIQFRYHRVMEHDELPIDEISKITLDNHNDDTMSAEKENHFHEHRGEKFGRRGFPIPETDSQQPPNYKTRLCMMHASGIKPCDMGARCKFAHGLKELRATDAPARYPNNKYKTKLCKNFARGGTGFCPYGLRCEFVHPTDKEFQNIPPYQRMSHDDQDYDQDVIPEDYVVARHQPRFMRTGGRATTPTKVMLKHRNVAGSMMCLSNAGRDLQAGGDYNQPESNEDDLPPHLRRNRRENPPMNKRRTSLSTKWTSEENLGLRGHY
# [2] = target: T2, RNA-binding protein pos-1 (Caenorhabditis elegans, UniProt G5EF15); assay: inhibitors of POS-1/mex-3 RNA binding, dose response, biochemical, fluorescence polarization (AID 1964);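 further: purified POS-1 fused to maltose binding protein made in E. coli; potency of compounds blocking POS-1 binding to fluorescent RNA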
# T2 sequence (G5EF15 whole entry): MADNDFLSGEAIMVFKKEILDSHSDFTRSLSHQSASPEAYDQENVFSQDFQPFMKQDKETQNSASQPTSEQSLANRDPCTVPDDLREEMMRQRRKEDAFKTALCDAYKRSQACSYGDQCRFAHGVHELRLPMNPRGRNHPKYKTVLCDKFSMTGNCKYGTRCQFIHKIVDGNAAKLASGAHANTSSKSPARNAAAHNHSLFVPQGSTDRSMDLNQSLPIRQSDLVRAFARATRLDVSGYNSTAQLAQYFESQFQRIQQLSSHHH
# [3] = target: Induced myeloid leukemia cell differentiation protein Mcl-1 (Homo sapiens, UniProt Q07820); type: functional
# Induced myeloid leukemia cell differentiation protein Mcl-1, sequence (Q07820 whole entry): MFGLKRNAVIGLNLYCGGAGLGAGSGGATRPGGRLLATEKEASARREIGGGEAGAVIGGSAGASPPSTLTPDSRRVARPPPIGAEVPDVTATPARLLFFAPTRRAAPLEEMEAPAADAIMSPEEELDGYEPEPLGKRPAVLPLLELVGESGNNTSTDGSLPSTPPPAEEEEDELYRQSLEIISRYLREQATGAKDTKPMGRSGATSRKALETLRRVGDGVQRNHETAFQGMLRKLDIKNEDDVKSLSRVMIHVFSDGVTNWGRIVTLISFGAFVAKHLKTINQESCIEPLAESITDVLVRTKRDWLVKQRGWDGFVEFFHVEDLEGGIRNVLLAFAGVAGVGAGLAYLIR
# H9c2 = assay: cells; type: functional, cell-based; settings: Rattus norvegicus, H9c2, Myocardium;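 further: confirmatory concentration-response retest of ultra-high-throughput screening hits for modulation of myocardial damage; cell death induced by hydrogen peroxide oxidative stress; compound pretreatment for 60 min then peroxide exposure for 2 h; potency is for protecting the cells against peroxide damage rather than for killing them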
# [4] = target: T3, Carboxy-terminal domain RNA polymerase II polypeptide A small phosphatase 1 (Homo sapiens, UniProt Q9GZU7); assay: inhibitors of CTDSP1, concentration-response testing, biochemical assay, absorbance-based, actives from ultra-high-throughput screening (AID 540297); type: functional
# T3 sequence (Q9GZU7 whole entry): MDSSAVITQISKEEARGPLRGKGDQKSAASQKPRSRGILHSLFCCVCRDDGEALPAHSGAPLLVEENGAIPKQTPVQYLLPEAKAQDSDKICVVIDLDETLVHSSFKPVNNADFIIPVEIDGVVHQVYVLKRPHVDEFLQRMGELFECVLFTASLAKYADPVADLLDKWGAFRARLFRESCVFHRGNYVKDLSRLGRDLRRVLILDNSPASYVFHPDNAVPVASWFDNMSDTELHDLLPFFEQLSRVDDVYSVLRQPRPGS
# [5] = target: T4, Calpain-2 catalytic subunit (Sus scrofa, UniProt P43367); assay: pig calpain II inhibitor potency, dose response, biochemical, fluorogenic peptide substrate (AID 1420); type: functional
# T4 sequence (P43367 whole entry): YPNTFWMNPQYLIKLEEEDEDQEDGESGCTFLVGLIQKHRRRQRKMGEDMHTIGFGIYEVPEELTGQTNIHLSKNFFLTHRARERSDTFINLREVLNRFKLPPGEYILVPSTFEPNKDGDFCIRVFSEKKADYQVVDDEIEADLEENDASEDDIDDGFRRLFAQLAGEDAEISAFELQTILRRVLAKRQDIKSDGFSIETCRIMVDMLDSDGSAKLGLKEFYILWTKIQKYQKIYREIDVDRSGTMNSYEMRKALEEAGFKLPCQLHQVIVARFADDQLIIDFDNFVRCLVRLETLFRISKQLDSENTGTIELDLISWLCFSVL
# [6] = Luminescence Cell-Based Dose Response HTS to Identify Activators of Luciferase Translation or Activity in H4 […] Cells. [Related pubchem assays: 1829 (Project Summary), 1814 (Primary HTS)]; type: functional
# [7] = Luminescence Cell-Based Dose Confirmation HTS to Identify Activators of 5'UTR Stem-Loop Driven Alpha-Synuclein mRNA Translation in H4 Neuroglioblastoma Cells. [Related pubchem assays: 1829 (Project Summary), 1814 (Primary HTS)]; type: functional
# H4 = assay: Luminescence Cell-Based Dose Response HTS to Identify Activators of 5'UTR Stem-Loop Driven Prion Protein mRNA Translation in H4 Neuroglioblastoma Cells. [Related pubchem assays: 1829 (Project Summary), 1814 (Primary HTS)]; type: functional; settings: Homo sapiens
# [8] = target: T5, Ubiquitin-conjugating enzyme E2 N (Homo sapiens, UniProt P61088); type: functional;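 further: Dose-response confirmation in a TR-FRET assay detecting UBC13-driven polyubiquitin chain formation, inhibition measured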
# T5 sequence (P61088 whole entry): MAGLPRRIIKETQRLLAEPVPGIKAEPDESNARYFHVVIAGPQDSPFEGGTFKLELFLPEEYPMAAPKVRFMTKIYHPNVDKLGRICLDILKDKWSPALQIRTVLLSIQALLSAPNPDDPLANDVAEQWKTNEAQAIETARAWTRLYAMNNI
# [9] = Shn3 3'UTR reporter inhibitors, dose response, cell-based, Clone20 osteoblasts, firefly luciferase, cherry-picked (AID 624132); type: functional;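 further: firefly luciferase luminescence from reporter carrying the Shn3 3'UTR in osteoblasts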
# [10] = control 3'UTR Renilla luciferase suppression, dose response, counter-screen for Shn3 inhibitor project, cell-based, Clone20-Shn3RL, cherry-picked (AID 624133); type: functional
# [11] = HepG2 cell cytotoxicity, dose response, cytotoxicity control for Shn3 inhibitor project, CellTiter-Glo, cherry-picked (AID 624134); type: functional, cell-based
# [12] = cytotoxicity toward DRD oncogenic fibroblasts, dose response, cell-based, non-viral oncogenic, luminescence (AID 1934); type: functional; settings: Homo sapiens
# BJ [13] = assay: cytotoxicity toward BJ-TERT fibroblasts, dose response, cell-based, RAS-independent, luminescence (AID 1933); type: functional; settings: Homo sapiens
# BJ [14] = assay: cells; type: functional, cell-based; settings: Homo sapiens
# BJ [15] = assay: cytotoxicity toward BJ-TERT-LT-ST fibroblasts, dose response, cell-based, RAS-independent, luminescence (AID 1935); type: functional; settings: Homo sapiens;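 further: BJ fibroblasts immortalized with TERT plus LT and ST oncogenes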
# [16] = inhibitors of clade B AD8 Env fusion, dose response, cell-based, cherry-pick (AID 652062); type: functional;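 further: luciferase signal from cell-cell fusion driven by HIV-1 clade B AD8 Env; potency is for inhibitors of fusion seen as a drop in luminescence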
# Cytochrome P450 2C9 = Cytochrome P450 2C9 (Homo sapiens, UniProt P11712)
# Cytochrome P450 2C9, sequence (P11712 whole entry, the tested form may be a part): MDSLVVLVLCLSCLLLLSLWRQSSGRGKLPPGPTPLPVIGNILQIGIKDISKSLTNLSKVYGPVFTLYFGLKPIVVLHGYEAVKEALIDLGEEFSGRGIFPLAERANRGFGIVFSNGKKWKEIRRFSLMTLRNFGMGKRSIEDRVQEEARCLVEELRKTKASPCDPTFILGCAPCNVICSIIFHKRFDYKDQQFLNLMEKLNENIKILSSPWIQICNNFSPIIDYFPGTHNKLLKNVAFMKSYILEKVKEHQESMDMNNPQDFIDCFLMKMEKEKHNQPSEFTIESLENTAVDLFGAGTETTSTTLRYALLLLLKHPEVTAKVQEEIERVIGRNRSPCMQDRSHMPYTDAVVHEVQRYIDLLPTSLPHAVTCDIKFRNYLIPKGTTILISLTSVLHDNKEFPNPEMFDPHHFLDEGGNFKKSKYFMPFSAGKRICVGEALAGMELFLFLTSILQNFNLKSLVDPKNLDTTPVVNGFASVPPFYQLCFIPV
# [17] = inhibitors of HIV Env-driven cell fusion, dose response, cherry-pick (AID 652057); type: functional, cell-based
# [18] = ZM109 Env clade C HIV-1 fusion inhibitors, dose response, HeLa effector, CEM target cells, luciferase, cherry-pick (AID 652058); type: functional, cell-based
# Cytochrome P450 2C19 = Cytochrome P450 2C19 (Homo sapiens, UniProt P33261); assay: Cytochrome panel assay with activity outcomes. Panel member name: p450-cyp2c19 Compounds with AC50 equal or less than 10 uM are considered active; type: functional; settings: read-out: AC50
# Cytochrome P450 2C19, sequence (P33261 whole entry): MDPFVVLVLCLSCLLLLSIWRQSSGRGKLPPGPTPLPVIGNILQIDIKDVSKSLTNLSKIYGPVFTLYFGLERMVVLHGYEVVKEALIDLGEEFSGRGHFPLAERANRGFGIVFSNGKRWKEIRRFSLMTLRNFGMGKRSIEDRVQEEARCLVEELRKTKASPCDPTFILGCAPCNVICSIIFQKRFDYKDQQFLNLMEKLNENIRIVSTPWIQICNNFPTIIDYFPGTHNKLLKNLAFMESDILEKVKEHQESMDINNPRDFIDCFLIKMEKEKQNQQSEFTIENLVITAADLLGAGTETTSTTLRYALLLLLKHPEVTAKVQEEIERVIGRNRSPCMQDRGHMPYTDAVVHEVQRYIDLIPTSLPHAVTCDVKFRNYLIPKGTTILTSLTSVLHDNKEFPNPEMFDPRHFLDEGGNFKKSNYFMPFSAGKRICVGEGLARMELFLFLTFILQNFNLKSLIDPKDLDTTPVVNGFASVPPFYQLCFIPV
# Cytochrome P450 2D6 = Cytochrome P450 2D6 (Homo sapiens, UniProt P10635);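 further: CYP2D6 member of a cytochrome P450 panel assay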
# Cytochrome P450 2D6, sequence (P10635 whole entry): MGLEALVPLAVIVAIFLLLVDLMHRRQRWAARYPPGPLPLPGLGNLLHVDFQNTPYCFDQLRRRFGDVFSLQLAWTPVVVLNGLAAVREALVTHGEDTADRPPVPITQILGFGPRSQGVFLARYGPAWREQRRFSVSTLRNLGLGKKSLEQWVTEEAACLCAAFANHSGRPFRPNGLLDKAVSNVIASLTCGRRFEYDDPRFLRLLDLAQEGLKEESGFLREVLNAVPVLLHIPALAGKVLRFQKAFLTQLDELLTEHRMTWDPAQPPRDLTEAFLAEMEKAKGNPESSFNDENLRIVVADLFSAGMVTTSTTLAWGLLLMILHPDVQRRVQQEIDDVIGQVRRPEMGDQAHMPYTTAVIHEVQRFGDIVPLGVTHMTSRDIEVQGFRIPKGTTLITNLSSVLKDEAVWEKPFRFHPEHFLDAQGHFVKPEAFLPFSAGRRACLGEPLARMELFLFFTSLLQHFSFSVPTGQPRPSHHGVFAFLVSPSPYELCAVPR
# Large T antigen, sequence (P03070 whole entry): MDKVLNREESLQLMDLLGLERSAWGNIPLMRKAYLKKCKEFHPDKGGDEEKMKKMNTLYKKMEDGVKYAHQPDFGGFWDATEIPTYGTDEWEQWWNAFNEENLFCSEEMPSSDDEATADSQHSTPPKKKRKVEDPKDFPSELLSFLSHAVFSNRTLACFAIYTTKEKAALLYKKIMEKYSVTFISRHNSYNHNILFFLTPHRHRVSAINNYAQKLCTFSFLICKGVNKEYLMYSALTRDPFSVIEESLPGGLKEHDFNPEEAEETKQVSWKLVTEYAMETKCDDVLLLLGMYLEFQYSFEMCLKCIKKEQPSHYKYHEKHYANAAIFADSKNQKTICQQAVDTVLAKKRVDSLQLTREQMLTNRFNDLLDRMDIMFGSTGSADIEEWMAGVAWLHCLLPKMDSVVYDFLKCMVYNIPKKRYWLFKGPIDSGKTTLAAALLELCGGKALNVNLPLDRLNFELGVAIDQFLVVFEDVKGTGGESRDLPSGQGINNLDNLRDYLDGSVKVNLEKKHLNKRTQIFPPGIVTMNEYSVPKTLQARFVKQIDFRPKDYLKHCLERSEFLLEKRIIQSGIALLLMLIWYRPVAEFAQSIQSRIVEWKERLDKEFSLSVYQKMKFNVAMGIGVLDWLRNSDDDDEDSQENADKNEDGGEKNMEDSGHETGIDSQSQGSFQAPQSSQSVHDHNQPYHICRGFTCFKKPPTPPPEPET
smiles,measurement,setting,value
Cc1ccc2c(c1)N/C(=C\C(=O)CC(C)C)C(=O)O2,IC50,Large T antigen,7.15 µM (active)
same,EC50,[1],> 300 µM (not active)
same,EC50,[2],> 300 µM (not active)
Cc1cccc(NC2=NC(=O)/C(=C/C=C/c3ccco3)S2)c1,IC50,[3],11.4 µM (active)
COCCCN(Cc1ccco1)C(=O)Cn1ncc2c3ccccc3nc-2c1O,IC50,H9c2,> 79 µM (inactive)
CC1(C(O)(C#CC[N+]2(C)CCCCC2)c2ccccc2)CCCC1 (stereo not given),IC50,[4],9.1 µM (active)
CC(C)Cn1c(S)nnc1-c1csc2c1CCCC2,IC50,[5],13.5 µM (not active)
CSc1cccc(NC(=O)CSc2ccc(Cl)cc2)c1,IC50,[5],8.93 µM (not active)
NC(=O)c1ccc(-n2nnnc2Oc2ccccc2C(=O)N2CCOCC2)cc1,IC50,[5],3.94 µM (not active)
same,EC50,[6],31.4 µM (inconclusive)
same,EC50,[7],8.06 µM (active)
same,EC50,H4,> 120 µM (not active)
CCN(CC)c1ccc(N/C=C2\C(=O)NC(=O)N(c3cc(OC)ccc3OC)C2=O)cc1,IC50,Large T antigen,19.8 µM (active)
same,EC50,[1],> 300 µM (not active)
same,EC50,[2],> 300 µM (not active)
CCOC(=O)/C=C1\CC(C(=O)OCC)Oc2c(OC)cccc21 (stereo not given),IC50,[4],16.7 µM (active)
CN(CC(=O)Nc1ccc(F)cc1)C(=O)CCc1nc(O)c2ccccc2n1,IC50,H9c2,> 79 µM (inactive)
C=CCNC(=O)c1ccc(Cn2c(=S)[nH]c3cc4c(cc3c2=O)OCO4)cc1,IC50,[4],8.27 µM (active)
Cc1cc(C)cc(OCC(=O)Nc2cccc(-c3nc4ncccc4o3)c2)c1,IC50,H9c2,> 79 µM (inactive)
Cc1ccc(C)c(N2CCN(CCCNC(=O)CCC(=O)N3CCOc4ccc(Cl)cc43)CC2)c1,IC50,[8],> 20 µM (inactive)
Cc1ccc(NC(=O)CSc2ccccc2NC(=O)c2ccccc2Cl)cc1Cl,IC50,[4],7.38 µM (active)
O=C(Nc1ccc2c(c1)nc1n2CCN(C2CCCCC2)C1)c1ccco1,IC50,[3],6.52 µM (active)
NS(=O)(=O)c1ccc(CCNCc2cc(Br)ccc2OCc2ccccc2F)cc1,AC50,[9],4.65 µM (active)
same,IC50,[5],> 50 µM (not active)
same,AC50,[10],8.75 µM (active)
same,AC50,[11],36.9 µM (active)
O=C(COC(=O)CC12CC3CC(CC(C3)C1)C2)Nc1cccnc1Cl,IC50,[5],> 50 µM (not active)
COCCN(C(=O)COC(=O)Cc1coc2cc3c(cc12)CCC3)c1c(N)n(Cc2ccccc2)c(=O)[nH]c1=O,IC50,[4],6.23 µM (active)
CC(C)Cn1c(N)c(C(=O)COC(=O)CCc2nc(O)c3ccccc3n2)c(=O)n(C)c1=O,IC50,H9c2,> 79 µM (inactive)
Cc1nn2cc(-c3cccc(Cl)c3)cnc2c1Br,EC50,[12],16 µM (active)
same,EC50,BJ [13],17.4 µM (active)
same,EC50,BJ [14],68.2 µM (active)
same,EC50,BJ [15],20.3 µM (active)
O=C(NCCCN1CCc2ccccc2C1)Nc1ccc(Cl)cc1,AC50,[16],39.9 µM (active)
same,AC50,Cytochrome P450 2C9,14.1 µM (inconclusive)
same,AC50,[17],3.52 µM (active)
COc1cccc(NC(=O)CN(C)CC(=O)Nc2ccc(Cl)cc2[N+](=O)[O-])c1,IC50,[5],24 µM (not active)
COc1cc(C(=O)Nc2ccc(C)cc2)c2ccccc2n1,EC50,[12],0.707 µM (inconclusive)
same,EC50,BJ [13],1.15 µM (inconclusive)
same,EC50,BJ [14],22.9 µM (active)
same,EC50,BJ [15],12.8 µM (inconclusive)
C#CCOCCOCCOCCNc1nc(N2CCN(C(=O)[C@H](CCCCN)n3cc([C@@H](N)CO)nn3)CC2)nc(N2CCN(C(=O)[C@H](CCCCN)n3cc([C@@H](N)CC(C)C)nn3)CC2)n1,IC50,[8],> 20 µM (inactive)
C[C@H](CO)N1C[C@H](C)[C@H](CN(C)C(=O)Nc2ccc(F)cc2)OCc2ccccc2-c2c(n(C)c3ccccc23)C1=O,AC50,[16],< 0.26 µM (active)
same,AC50,[18],< 0.26 µM (active)
same,AC50,[17],< 0.26 µM (active)
COc1ccc(-c2cc(C(=O)N(C)Cc3ccc(OC)c(OC)c3OC)c3ccccc3n2)cc1OC,IC50,H9c2,> 79 µM (inactive)
Oc1nc2cccc(Cl)c2c2ccccc12,IC50,H9c2,39.6 µM (inactive)
C#Cc1ccc([C@@H]2C=C(C(=O)O)O[C@H](OCC)[C@H]2CCCO)cc1,IC50,[4],4.59 µM (active)
CCOc1cc(/C=N/NC(N)=O)cc(Br)c1OCC(=O)Nc1cccc2ccccc12,IC50,H9c2,> 79 µM (inactive)
COc1ccc(N(CC(=O)N/N=C/c2cccs2)S(=O)(=O)c2ccc(OC)c(OC)c2)cc1,AC50,Cytochrome P450 2C19,0.0178 µM (inconclusive)
same,IC50,H9c2,> 79 µM (inactive)
same,AC50,Cytochrome P450 2D6,31.6 µM (inconclusive)
same,AC50,Cytochrome P450 2C9,4.47 µM (inconclusive)
COc1cc(/C=N\Nc2nc(-c3cccs3)c(NC(C)=O)s2)ccc1O,IC50,Large T antigen,27.8 µM (active)
same,IC50,[3],2.72 µM (active)
